In ChEMBL document CHEMBL4000152, “Synthesis and Antimalarial Activity of Mallatojaponin C and Related Compounds” (J Nat Prod, 2016) one finds IC50 and Stability data, which are given here for 14 compounds.

Molecules are shown by their SMILES. A value given as a limit tells only on which side of the number the result lay.

A word on the IC50: it is the concentration needed to halve the response being measured.

Data set [1] concerns Plasmodium falciparum. Nature of the data set: Antiplasmodial activity against Plasmodium falciparum FcB1/Columbia infected in human erythrocytes assessed as parasite growth inhibition after 24 hrs by [3H]-hypoxanthine incorporation assay. The format is functional, cell-based.
The subject of data set [2] is Plasmodium falciparum. Nature of the data set: Antiplasmodial activity against intraerythrocytic stage of Plasmodium falciparum Dd2 assessed as parasite growth inhibition after 72 hrs by SYBR Green I dye-based assay. In kind it is functional. The note with it: Dd2, 72 h.
A short description of data set [3]: Stability of the compound under freezing condition. In kind it is physicochemical.

Consider `COc1c(CC=C(C)C)c(O)c(C(C)=O)c(O)c1Cc1c(O)c(C(C)=O)c(O)c(CC=C(C)C)c1OC` [MALLOTOJAPONIN C], for which the IC50 in data set [1] came to 0.75 µM.

`COc1c(CCC(C)(C)O)c(O)c(C(C)=O)c(O)c1Cc1c(O)c(C(C)=O)c(O)c(CCC(C)(C)O)c1OC`: the IC50 in data set [2] was above 10 µM.

For `COc1cc(O)c(C(C)=O)c(O)c1C/C=C(\C)CCC=C(C)C`, the 50% inhibitory concentration (IC50) in data set [1] worked out at 4.4 µM; in data set [2] it was 0.57 µM.

On to `COc1cc(O)c(C(C)=O)c(O)c1`, for which, in data set [2], the half-inhibitory concentration (IC50) was above 20 µM.

In the case of `CC(=O)c1c(O)cc(O)c(C/C=C(\C)CCC=C(C)C)c1O`, the concentration for half-maximal inhibition (IC50) in data set [2] was 6.6 µM.

As to `COc1c(C/C=C(\C)CCC=C(C)C)c(O)c(C(C)=O)c(O)c1Cc1c(O)c(C(C)=O)c(O)c(C/C=C(\C)CCC=C(C)C)c1OC`, the IC50 in data set [1] came to 6 µM; in data set [2], 1.7 µM.

For `CC(=O)c1c(O)cc(O)cc1O` [2,4,6-TRIHYDROXYACETOPHENONE], in data set [2], the IC50 is above 20 µM.

On to `COc1cc(O)c(C(C)=O)c(O)c1CC=C(C)C`, for which the concentration for half-maximal inhibition (IC50) in data set [1] was 7.4 µM; in data set [2] it was 1.7 µM.

As to `COc1cc(O)c(C(C)=O)c(O)c1Cc1c(OC)cc(O)c(C(C)=O)c1O`, the half-maximal inhibitory concentration (IC50) in data set [1] is 17.6 µM; in data set [2] it was 8.1 µM.

With `CC(=O)c1c(O)cc(O)c(CC=C(C)C)c1O`, the IC50 in data set [2] was above 20 µM.

Turning to `COc1cc(O)c(C(C)=O)c(O)c1C/C=C(/C)CC/C=C(/C)CCC=C(C)C`, the IC50 in data set [2] was determined as 0.56 µM.

Regarding `COc1cc(O)c(C(C)=O)c(O)c1CCC(C)(C)O`, in data set [2], the half-inhibitory concentration (IC50) was above 20 µM.

On to `CC(=O)c1c(O)cc(O)c(C/C=C(/C)CC/C=C(/C)CCC=C(C)C)c1O`, for which, in data set [2], the IC50 is 3.6 µM.

With `CC(=O)c1c(O)c(CC=C(C)C)c(O)c(C(c2ccc(F)cc2)c2c(O)cc(O)c(CC=C(C)C)c2O)c1O` (centres undefined), in data set [2], the IC50 lay in the range of 2 to 4 µM. Also, the Stability result in data set [3] is “Unstable”.
